Data from patent publication US12201592B2, “Combinations of IRS/STAT3 dual modulators and anti-cancer agents for treating cancer” (TYRNOVO LTD., priority 2015, dated 2025).
Like-named read-outs stand apart in the source and are kept apart here.

Columns and labels:
[1] = test system: Uteral AdenoSarcoma biopsy; assay: PDX efficacy study with Afinitor (Examples 4 and 5)
Method: Treatments and Procedures
Treatment groups included: • 1. Control: 20% HPbCD 50 ul IP, qod (6 mice). • 2. […] Afinitor 5 mg/kg PO, qod (15 mice). • 4. Afinitor 5 mg/kg PO (qod)+Compound D 70 mg/kg IV (qod), 6 mice. Afinitor was administered ˜4 hr following Compound D.
All treatments were initiated simultaneously on day0.
The length (l) and the width (w) of the tumors were measured every other day and the volumes of the tumors were calculated as follows: v=lw^2/2.
Following treatments described in phase I (example 4), the mice whose tumors reached the end point were sacrificed, and the following treatments were continued.
• 1. The Afinitor-responder group (group A, open squares) was administered with Afinitor 5 mg/kg PO, qd (8 mice). • 2. The combined treatment group (open circles) continued to get the Afinitor 5 mg/kg PO (qod)+Compound D 70 mg/kg IV (qod) treatment (6 mice). Afinitor was administered ˜4 hr following Compound D. Phase III:
The group was divided to two groups of 4 mice each which received the following treatments on day6 onwards: • The first continued to get Afinitor 5 mg/kg PO, qd (4 mice) • and the second got Afinitor 5 mg/kg PO (qod)+Compound D 70 mg/kg IV (qod) combined treatment (4 mice). Afinitor was administered ˜4 hr following Compound D.

[2] = test system: Uteral AdenoSarcoma biopsy; assay: PDX efficacy study with Afinitor, repeat (Example 5A); format: in vivo, NodScid mice
Method: The experiment described in Example 4 was repeated in purchased mice from Harlan.
• 1. […] Afinitor 5 mg/kg PO, 4 times a week (17 mice). • 4.

[3] = test system: phospho-Y705 Stat3 (pSTAT3) in melanoma A375 cells; assay: Immunoblot of Stat3 Y705-phosphorylation in intact cells; format: cell-based, human; settings: for IC50: Homo sapiens, A-375; for inhibition of Stat3 Y705-phosphorylation: 3 μM, 24 hr post treatment (FIG. 6E)
Method: FIGS. 6A-6E. […] A. Human melanoma A375 cells were treated with the indicated concentrations of compounds A or D for 1.3 and 4.5 hr. Cells were lysed and immunoblotted with antibodies against phospho-Y705 Stat3 (pSTAT3) and Stat3. […] B. Cells were treated with 2 μM Compound A and lysed following the indicated times. C. A375 cells were treated with compound D for 4 hr, then washed with medium several times and lysed after 4, 24 and 48 hr of incubation without inhibitors.
(§1) • Cells were treated as indicated in FIGS. 6-9 and the corresponding figure legends, following overnight serum-starvation (unless indicated differently). When cells were treated with both PLX4032 and compounds A or D, PLX4032 was added 3-4 hr following the compounds. • Cells were lysed with boiling sample buffer (10% glycerol, 50 mmol/L Tris-HCl, pH 6.8, 3% SDS, and 5% 2-mercaptoethanol). Western blot analysis was conducted in 8% SDS-PAGE, using antibodies described below. • Aliquots of cell extracts containing equal amounts of protein were resolved by 8% SDS/PAGE and electroblotted onto nitrocellulose filters. The membranes were blocked with low-fat milk diluted 1:20 in TBST (NaCl/Tris containing 0.2% Tween-20) for 0.5 hr, incubated with Rabbit anti-phosphoY705-Stat3 antibody (Cell signaling cat #9131), Mouse anti-ERK-diphosphorylated-YT (Sigma Aldrich cat #M8159) or anti-PARP antibodies overnight at 4 C in 5% BSA in TBST containing 0.05% azid, washed extensively with TBST and then incubated with horseradish peroxidase-conjugated secondary antibodies for 45 min at room temperature in 5% BSA in TB ST. • Immunoreactive bands were visualized using enhanced chemiluminescence. Membranes were re-blotted with Mouse anti-Stat3 antibody (Transduction labs cat #21320) or with Rabbit anti AKT1/2 (Santa cruz cat #sc-8312) or Anti-Actin as described above. IV. Chemotaxis of Peripheral Blood Mononuclear Cells (PBMCs)

PC3 = assay: Cell proliferation and viability, methylene-blue staining; format: cell-based; settings: Homo sapiens, PC-3, 72 h; PC3, prostate cancer; 3 days exposure
Method: (§2) Cells were grown in complete medium and treated with inhibitors one day following seeding. 72 hours later, the surviving cells were quantified by methylene blue staining or by WST-1 staining for nonadherent cells (Roche).
(§3) Cells were plated in 96-well plates in 5-10% FCS in medium; a day later exposed to various concentrations of compound A, compound D or OSI-906 and 3 days later stained with methylene-blue and the relative cell number was quantified.

HepG2 = assay: as above; format: cell-based; settings: Homo sapiens, 72 h; HepG2, hepatocarcinoma; 3 days exposure
Method: as §2, §3

PBMCs = assay: Chemotaxis of PBMCs towards medium of treated A375 cells; format: cell-based, human; settings: medium taken 30 hrs after treatment; read 24 hrs later (FIG. 9A)
Method: A375 cells were treated with the indicated concentrations of Compound A and washed twice with the medium 4 hrs after treatment where indicated (Wash). […] 10,000 PBMCs/well were added to the upper plate.
A375 cells were seeded in 96-well plates (6000 cells/well) and grown overnight. Cells were treated with Compound A and washed twice with the medium 4 hrs after treatment where indicated (Wash). […] 10,000 PBMCs/75 ul medium/well were added to the upper plate. […] Chemotaxis was examined 24 hrs later by Cell Titer Glo analysis of the lower plate.
Thus, it was tested whether treatment of tumor cells with IRS/Stat3 dual modulators may induce the recruitment of peripheral blood mononuclear cells towards the cancer cells. Human melanoma A375 cells were treated with increasing concentrations of compound A and washed twice with the medium 4 hrs post-treatment where indicated (Wash).

Mel1617-BR = assay: Cell proliferation and viability, methylene-blue staining; format: cell-based; settings: Homo sapiens, 72 h, melanoma, 3 days exposure
Method: (§4) All melanoma cells used and discussed in FIGS. 6-9 and table 1 are from human origin and bearing the mutated BRAF^600K/E.
as §2, §3

Mel1617-Pa = assay: as above; format: cell-based; settings: Homo sapiens, 72 h, melanoma, 3 days exposure
Method: as §4, §2, §3

[4] = test system: pStat3 in A375, 451-Lu, Mel1617 cells; assay: Immunoblot of basal and PLX4032-induced pStat3 in PLX4032-sensitive melanoma cells; format: cell-based, human; settings: PLX4032 1 μM added 3-4 hr after the compounds (FIG. 7C-E, 8A)
Method: FIGS. 7A-7E. […] FIG. 7A. […] FIG. 7B. […] Cells from patients were grown in complete medium and immunoblotted as described above. […] Compounds A/D block the basal and the PLX4032-induced pStat3. Treatment of PLX4032-sensitive human melanoma A375 (C), 451-Lu (D) or Mel1617 (E) cells with 1 μM PLX4032 for 18-24 hr induces a dramatic increase in pStat3. Compounds A (FIG. 7C, D) or D (FIG. 7E) block both the basal and the PLX4032-induced pStat3. OSI-906, an ATP-competitive inhibitor of IGF1R, has no effect on pStat3.
as §1

MM1S = assay: Cell proliferation and viability; format: cell-based; settings: Homo sapiens, MM1.S, 72 h, multiple myeloma, 3 days exposure
Method: as §2, §3

[5] = test system: pStat3 in 451-LU-BR, Mel1617-BR and patient cells M2068, M571; assay: Immunoblot of pStat3 in BRAFi-resistant melanoma cells; format: cell-based, human; settings: 451-LU-BR, Mel1617-BR, patient cells M2068 and M571 (FIG. 8A-C)
Method: FIGS. 8A-8D. […] FIG. 8C. […] FIG. 8D. Cells of various cancer types were treated with compound D for 4 hr in serum-free medium, and 20 hr in medium with or without 10% serum. Asterisks indicate 10 μM concentration for RPMI8226 and HepG2 cells.
as §1

451Lu-BR = assay: Cell proliferation and viability, methylene-blue staining; format: cell-based; settings: Homo sapiens, 72 h, melanoma, 3 days exposure
Method: (§5) All cell lines were obtained from the American Type Culture Collection. YUMAC, YURIF, YUSIK (all human melanoma, kindly provided by Prof. Ruth Halaban, Yale University, New Haven, Conn.) were cultured in OptiMEM containing 5% FCS. M571, M2068, M560n (all human melanoma, kindly provided by Dr. Michal Lotem, Hadassah Hospital, Jerusalem, Israel) were maintained in RPMI, DMEM and F12 (1:3:1) containing 10% FCS. 451-Lu (human melanoma) and 451-Lu-BR (PLX4032-resistant melanoma; ref. 32) were maintained in RPMI containing 5% FCS (media for resistant lines contained […] PLX4032). All media were supplemented with 100 U/mL penicillin and […] and all cells were grown at 37° C./5% CO2.
as §4, §2, §3

[6] = test system: Squamous Cell carcinoma of Head&Neck (SCCHN) tumor biopsy; assay: PDX efficacy study, Erlotinib-resistant tumors (Example 2); format: in vivo, NodScid mice
[7] = test system: Squamous Cell carcinoma of SCCHN tumor biopsy; settings: start 700-720 mm^3
Method: Experimental system: Patient-derived xenograft (PDX) of Squamous Cell carcinoma of SCCHN tumor biopsy subcutaneous implanted into NRG mice.
• Implantation of SCCHN tumor biopsy graft (P11) into NRG mice for efficacy study: Eight months following implantation of SCCHN tumor biopsy graft (P1) described above, tumor cells (P11) were injected into 20 male mice NOD.Cg-Rag1tm1Mom Il2rgtm1Wj1/SzJ mice (Common name: NRG), from self-breeding, using the same procedure described for implantation of P1. […] All treatments initiated simultaneously on day 0.
Treatment groups included: • 1. Vehicle-control: 20% HPbCD 50 μl/injection, IV (3 times/week, qod), 4 mice. • 2. […] Erlotinib 100 mg/kg in HPbCD, PO (5 times/week), 5 mice. • 4.
The length (l) and the width (w) of the tumors were measured 4 times a week and the volumes of the tumors were calculated as follows: v=lw^2/2. […] Mice weight and behavior were examined routinely.

[8] = test system: Squamous Cell carcinoma of Head&Neck (SCCHN) tumor biopsy; assay: PDX efficacy study, acquired resistance to Erlotinib (Example 1); settings: start ~80 mm^3
HCT15 = assay: Cell proliferation and viability, methylene-blue staining; format: cell-based; settings: Homo sapiens, HCT-15, 72 h; HCT15, colon cancer; 3 days exposure
Method: as §3, with “Cells were grown in complete medium and treated with inhibitors one day following seeding. 72 hours later, the surviving cells were quantified by methylene blue staining or by WST-1 staining for nonadherent cells (Roche). Cells” for “Cells”

451Lu-Pa = assay: as above; format: cell-based; settings: Homo sapiens, 72 h, melanoma, 3 days exposure
Method: as §5, §4, §2, §3

[9] = FIG. 6D, read-out: IC50 of dose-dependent inhibition of pStat3

In the case of `CO[C@H]1C[C@@H]2CC[C@@H](C)[C@@](O)(O2)C(=O)C(=O)N2CCCC[C@H]2C(=O)O[C@H]([C@H](C)C[C@@H]2CC[C@@H](OCCO)[C@H](OC)C2)CC(=O)[C@H](C)/C=C(\C)[C@@H](O)[C@@H](OC)C(=O)[C@H](C)C[C@H](C)/C=C/C=C/C=C/1C` [Afinitor, Everolimus], the “average tumor size on day6” value ([1]; Afinitor-responder group A (n=8)) is reported as 590 mm^3, the “average tumor size on day5” value ([1]; Afinitor-responder group A (n=8), 125 mm^3 on day0) is reported as 37 mm^3 and the “increase of average tumor size” value ([1]; four days, start 130 mm^3, control 16-fold) is reported as 5.5 fold. The “response of Afinitor-resistant tumors (phase III)” value ([1]; group A tumors, treatment from day 6 (FIG. 5B)) was “tumors significantly progressed”, the responder mice ([1]; phase I) was “half of the group responded” and the “effect on tumor growth” value ([1]; phase I, four days, Afinitor 5 mg/kg PO, Compound D 70 mg/kg IV) was “growth inhibition of the tumors”. The “tumor course while on treatment (phase II)” value ([1]; treatment from day0 (FIG. 5A)) was “all tumors developed resistance to Afinitor and aggressively progressed”, the responder mice ([2]; Afinitor 5 mg/kg PO, 4 times a week) was 14 out of 17 and the “acquired resistance while on treatment” value ([2]; after one week of treatment) was “acquired resistance to Afinitor and aggressively progressed”.

In the case of `N#C/C(=C\c1cc(O)c(O)c(I)c1)C(=S)NCc1cc(O)c(O)c(O)c1` [B], the IC50 [3, 9] is reported as 1000 nM.

`Oc1cc(CNC(=S)/C=C/c2cc(O)c(O)c(I)c2)cc(O)c1O` [C] was tested, and the IC50 [3, 9] was less than 1000 nM.

For `Oc1cc(CNC(=S)/C=C/c2cc(O)c(O)c(Br)c2)cc(O)c1O` [Compound A], the IC50 (PC3) was 800 nM, the IC50 (HepG2) was 1 µM and the “chemotaxis of PBMCs towards medium of treated A375 cells” value (PBMCs) was “dose dependent chemotaxis was detected”. For the same compound, the IC50 (Mel1617-BR) was 300 nM, the IC50 (Mel1617-Pa) was 300 nM and the “effect on basal and PLX4032-induced pStat3 levels” value [4] was “block both the basal and the PLX4032-induced levels of pStat3”. It also gave an IC50 (MM1S) of 300 nM, an IC50 ([3]; A375 cells, 1.3 hr post-treatment (FIG. 6A), read-out: IC50 of inhibition of Stat3 phosphorylation (pStat3)) of roughly 2000 nM and an IC50 ([3]; A375 cells, 3 hr later (4.5 hr treatment, FIG. 6A), read-out: IC50 of inhibition of Stat3 phosphorylation (pStat3)) of less than 1000 nM. The IC50 [3, 9] was less than 1000 nM, the “effect on Stat3 phosphorylation in PLX4032-resistant melanoma cells” value [5] was “block Stat3 phosphorylation completely” and the IC50 (451Lu-BR) was roughly 700 nM.

In the case of `C#Cc1cccc(Nc2ncnc3cc(OCCOC)c(OCCOC)cc23)c1` [Erlotinib], the “treated mice with tumor regression” value ([6]; Erlotinib 100 mg/kg PO, 14 out of 18 mice) is reported as 78%, the “acquired resistance / regrowth while on treatment” value ([6]; treatment from day 0, tumors ~70 mm^3) is reported as “tumors developed resistance to Erlotinib after 1 week and aggressively progressed” and the “response of Erlotinib-resistant tumors, late treatment” value ([6]; tumors ~130 mm^3 on day 10, treatment from day 10) is reported as “aggressively developed”. The “acquired resistance / regrowth while on treatment” value [7] was “tumors developed resistance to Erlotinib a week following treatment initiation and aggressively progressed”, the “tumor response (tumor volume)” value [7] was “their growth was halted and they regressed” and the “tumor response (tumor volume)” value ([8]; Erlotinib 100 mg/kg PO, Compound D 70 mg/kg IV, two weeks) was “significant tumor regression in all the treated mice”. The “acquired resistance / regrowth while on treatment” value ([8]; two weeks of treatment) was “all the tumors developed resistance to Erlotinib and progressed aggressively”.

Compound `N#C/C(=C\c1cc(O)c(O)c(Br)c1)C(=S)NCc1cc(O)c(O)c(O)c1` [F] has an IC50 [3, 9] of 2000 nM.

`N#C/C(=C\c1cc(O)c(O)c(I)c1)c1ncc2cc(O)c(=O)c(O)c-2s1` [IV-1] was tested, and the “inhibition of Stat3 Y705-phosphorylation” value ([3]; A375 cells) was “Complete inhibition”.

In the case of `O=c1c(O)cc2cnc(/C=C/c3cc(O)c(O)c(Br)c3)sc-2c1O` [IV-2], the “inhibition of Stat3 Y705-phosphorylation” value ([3]; A375 cells) is reported as “Complete inhibition”.

With `O=c1c(O)cc2cnc(/C=C/c3cc(O)c(O)c(I)c3)sc-2c1O` [IV-3] the “inhibition of Stat3 Y705-phosphorylation” value ([3]; A375 cells) was “Complete inhibition”.

`O=c1c(O)cc2cnc(/C=C/c3ccc(O)c(O)c3Br)sc-2c1O` [IV-4] was tested, and the “inhibition of Stat3 Y705-phosphorylation” value ([3]; A375 cells) was “Complete inhibition”.

In the case of `C[C@]1(O)C[C@@H](c2nc(-c3ccc4ccc(-c5ccccc5)nc4c3)c3c(N)nccn32)C1` [OSI-906, reference compound], the IC50 (PC3) is reported as greater than 10000 nM, the IC50 (HepG2) is reported as 8.3 µM and the IC50 (HCT15) is reported as greater than 3000 nM. The IC50 (Mel1617-BR) was greater than 3000 nM, the IC50 (Mel1617-Pa) was greater than 3000 nM and the “effect on basal and PLX4032-induced pStat3 levels” value [4] was “had no effect on pStat3 levels”. For the same compound, the IC50 (MM1S) was 200 nM, the IC50 (451Lu-BR) was greater than 3000 nM and the IC50 (451Lu-Pa) was greater than 3000 nM.
